Measurements: patent US11439713B2, “Method for creating a renal injury model to screen molecules for the treatment of renal injury” (BAYER AKTIENGESELLSCHAFT, priority 2017, dated 2022)
Entries after “also recorded” stand apart in the source; their conditions may differ.

Experiments:
[1] = test system: C57Bl/6 mice; test: AGISHA model with AngII as injury inducer (ACR in urine); format: in vivo
Description: Five groups with 10-12 mice per group (C57Bl/6, Charles River Laboratories, 6-7 weeks old) were set for one experiment. After delivery, animals remained in a temperature- and light-controlled room with standardized mouse chow and water ad libitum for a one week acclimatization period, following guidelines of local governmental institutions (LANUV Germany). The groups were divided as follows (see FIG. 1): • 1. Control group without AngII bolus injection, but with control saline and additional (oral) administration of drug vehicle (10% ethanol, 40% solutol, 50% water or saline). • 2. AngII group, treated with AngII in normal saline, and drug vehicle. AngII administration occurred in two bolus injections (i.v.+s.c.) of 10 μg (5 μg i.v.+5 μg s.c.), 16 μg (8 μg i.v.+8 μg s.c.) and 20 μg (10 μg i.v.+10 μg s.c.) per mouse, where the first bolus was injected intravenously and the second bolus subcutaneously. The drug vehicle was administered orally.
3. Candidate groups 3 and 4: AngII injection and additional treatment with the investigated drug/drugs. For substance testing, drugs or appropriated vehicles were administered orally, via i.v., s.c., or i.p. Administration occurred prior to or after AngII-injection. For example, investigated drug/drugs were given orally 30 minutes before the induction of the injury. • 4. Group 5 is the positive control group Animals were injected with AngII and treated orally with Losartan 30 mg/kg. Losartan is an AngII receptor blocker AT1 (Pieter B M et al, Pharma. Rev., 1993, Kang P M et al, Progress in Cardiology, 1994).
After AngII injection animals were placed in metabolic cages (Technoplast, Italy) for urine collection for up to 4 hours. At the end of the experiment the urine was analyzed to quantify the ACR. More specifically, the collected urine was analyzed using an automatic analyzer for urinary albumin as well as urinary creatinine (Coban® Integra 400, Roche, Basel, SUI) or using the Mouse albumin ELISA kit (ABCAM, Cambridge, UK). […] The AGISHA model was performed in 3 identical cycles with a one-week break for recovery.
Negative and positive control experiment. To confirm the findings shown in FIG. 2-4, the mode of action in AGISHA was investigated. In the following experiment, three of the animal groups were pre-treated with three different drugs by oral application 30 minutes before administration of injury inducer (see FIG. 5). • 1) Enalapril 10 mg/kg, an angiotensin-converting enzyme (ACE) inhibitor, is standard of care for high blood pressure. It was used as positive modulator control 1 of the renin-angiotensin system (RAS) in the AGISHA model. • 2) Losartan potassium, 30 mg/kg, angiotensin II type I receptor (AT1) antagonist, standard of care for high blood pressure (Kang et al, 1994; Sica D A et al, Clin Parmacokinet., 2005) was used as positive modulator control 2 of the RAS system in the AGISHA model. • 3) Tivozanib, 3 mg/kg, vascular endothelial grow factor receptor tyrosine kinase inhibitor (Campas C et al, Drugs Fut., 2009) was used as negative modulator of the RAS system during AGISHA model. […]
The experiment was performed as described in example 5, except that the sGC stimulator 5-cyclopropyl-2-[1-(2-fluorobenzyl)-1H-pyrazolo[3,4-b]pyridin-3-yl]pyrimidin-4-amine was used for treatment. […] Losartan (30 mg/kg) was used as positive control.

[2] = test system: rat model of hypertension; conditions: Hoffmann L S et al. 2015; cited from earlier work
[3] = test system: C57Bl/6 mice; test: AGISHA model with Vasopressin (AVP) as injury inducer (ACR in urine); format: in vivo; conditions: AVP 10 μg i.v.+10 μg s.c.; vs NaCl
[4] = test system: mice; test: GFR-based model with AVP and Sinestrin-FITC; format: in vivo; conditions: AVP 35 μg (15 μg i.v. + 20 μg second bolus); vs control group
Description: A similar setup (FIG. 23) was used with AVP (Sigma-Aldrich, Mo.) at a dose of 35 μg, i.e. using a first bolus with 15 μg AVP, injected i.v. in combination with Sinestrin-FITC 150 mg/kg (50 ul+50 ul) and using a second bolus of 20 μg AVP, 100 uL, injected i.v. As before GFR, was decreased by AVP compared with the control group.

[5] = test system: Male BL6/J mice; test: ACR after Sema3a bolus injection; format: in vivo; conditions: Sema3a 0.5 μg/g bodyweight i.v.; vs BSA control
Description: (§1) AngII induced GBM damage is a fast and stable trigger method to mimic human hypertensive glomerular disease or its complications. However, a non-hypertensive trigger was required to study the non-hypertensive kidney pathologies. […] For the example at hand, other than described by Tapia R et al, Sema3a was injected i.v. and ACR and GFB integrity were evaluated in the following setup with the following experimental groups. • 1) Male BL6/J mice were injected via tail vein with a mix of Ficoll-FITC 150 mg/kg and BSA (0.5 μg/g of BW), in a maximal volume of 100 μl. • 2) Male BL6/J mice were injected via tail vein with a mix of Ficoll-FITC 150 mg/kg and Sema3a (R&D System, USA), 0.5 μg/g of BW, in a maximal volume of 100 μl.
(§2) The animals went under transcutaneous fluorescent measurement for 2 h, as described before. The GFB integrity test was able to detect the loss of fluorescent dye due to podocyte effacement as well as the increased ACR in the urine. […] This peptide is able to disrupt the ability of the Sema3A to induce the decay of the fluorescent dye. The sensitivity of the GFBI test was evaluated as follows and subjects were pre-treated according to the following groups: • 1. […]

[6] = Tapia R et al, KI, 2008; cited from earlier work
[7] = test system: Male BL6/J mice; test: GFBI test model with Sema3a as injury inducer (half-life of Ficoll-FITC); format: in vivo; conditions: Sema3a 0.5 μg/g bodyweight i.v., vs BSA control
Description: as §1, §2

## Nc1nc(-c2nn(Cc3ccccc3F)c3ncccc23)ncc1C1CC1 [5-cyclopropyl-2-[1-(2-fluorobenzyl)-1H-pyrazolo[3,4-b]pyridin-3-yl]pyrimidin-4-amine]
[1]; 1 mg/kg orally prior to AngII
  Reduction of ACR: 54%
[1]; 1 mg/kg orally prior to AngII 10 μg i.v.+10 μg s.c.
  AngII induced ACR, mean±SD: 50 ± 49 µg/mg
[1]; 3 mg/kg orally prior to AngII 10 μg i.v.+10 μg s.c. (sGC stimulator experiment)
  AngII induced ACR, mean±SD: 42 ± 35 µg/mg
[1]; 3 mg/kg orally prior to AngII (sGC stimulator experiment)
  Reduction of ACR: 62%
[2]
  Effect on angiotensin II-induced cardiovascular remodeling: ameliorates angiotensin II-induced cardiovascular remodeling

## NC(=O)CC[C@@H]1NC(=O)[C@H](Cc2ccccc2)NC(=O)[C@H](Cc2ccc(O)cc2)NC(=O)[C@@H](N)CSSC[C@@H](C(=O)N2CCC[C@H]2C(=O)N[C@@H](CCCN=C(N)N)C(=O)NCC(N)=O)NC(=O)[C@H](CC(N)=O)NC1=O [AVP]
[3]
  ACR in urine collected for 4 hours after AVP bolus injection: significant increase of ACR
[4]
  GFR 2 hrs after AVP bolus injection: decreased; also recorded: significant decrease in GFR

B1: Sema3a: recombinant mouse Semaphorin-3A protein (R&D System), non-hypertensive injury inducer (protein, UniProt O08665 21-772, looked up)
Semaphorin-3A: NYANGKNNVPRLKLSYKEMLESNNVITFNGLANSSSYHTFLLDEERSRLYVGAKDHIFSFNLVNIKDFQKIVWPVSYTRRDECKWAGKDILKECANFIKVLEAYNQTHLYACGTGAFHPICTYIEVGHHPEDNIFKLQDSHFENGRGKSPYDPKLLTASLLIDGELYSGTAADFMGRDFAIFRTLGHHHPIRTEQHDSRWLNDPRFISAHLIPESDNPEDDKVYFFFRENAIDGEHSGKATHARIGQICKNDFGGHRSLVNKWTTFLKARLICSVPGPNGIDTHFDELQDVFLMNSKDPKNPIVYGVFTTSSNIFKGSAVCMYSMSDVRRVFLGPYAHRDGPNYQWVPYQGRVPYPRPGTCPSKTFGGFDSTKDLPDDVITFARSHPAMYNPVFPINNRPIMIKTDVNYQFTQIVVDRVDAEDGQYDVMFIGTDVGTVLKVVSVPKETWHDLEEILLEEMTVFREPTTISAMELSTKQQQLYIGSTAGVAQLPLHRCDIYGKACAECCLARDPYCAWDGSSCSRYFPTAKRRTRRQDIRNGDPLTHCSDLQHHDNHHGPSLEERIIYGVENSSTFLECSPKSQRALVYWQFQRRNEDRKEEIRMGDHIIRTEQGLLLRSLQKKDSGNYLCHAVEHGFMQTLLKVTLEVIDTEHLEELLHKDDDGDGSKIKEMSSSMTPSQKVWYRDFMQLINHPNLNTMDEFCEQVWKRDRKQRRQRPGHSQGSSNKWKHMQESKKGRNRRTHEFERAPRSV
[5]
  ACR after Sema3a bolus injection: significantly increased ACR
[6]
  ACR after injection of recombinant Sema3a: robust, transient ACR within 4-24 h
[7]
  Half-life of fluorescent molecule Ficoll-FITC 2 hrs after Sema3a bolus injection: significantly decreased half-life
[7]; listed as Sema3A
  Half-life of fluorescent molecule Ficoll-FITC 2 hrs after Sema3a bolus injection: significant decrease in half-life
